From patent US8946249B2, “Compound, certain novel forms thereof, pharmaceutical compositions thereof and methods for preparation and use” (Hutchinson Medipharma Limited, priority 2009, dated 2015)

Assays:
[1] = biological target: T1, recombinant human KDR catalytic domain (Homo sapiens, UniProt P35968); assay: KDR kinase inhibition, Z'-LYTE assay kit; format: biochemical; conditions: 10 μM ATP, 1 μM Tyr1 peptide, 25° C., 1 hour
T1 construct: 300 ng/mL of recombinant human KDR catalytic domain
Description: The KDR kinase inhibition activity of the above three compounds is tested using the Z-Lyte assay kit.
Z′-LYTE™ Tyr1 peptide (Invitrogen, Cat. PV3190) is used to test the KDR kinase inhibitory activity of the above three compounds. The testing system contains 300 ng/mL of recombinant human KDR catalytic domain, 10 μM of ATP, 1 μM of substrate peptide, and a test compound at a series of different concentrations in 384-well plate (Thermo Labsystems, Cat. 7805); total volume is 10 μL. The enzymatic inhibition proceeds at room temperature (25° C.) for 1 hour on the shaker, followed by addition of 5 μL of enhancer and incubation for an additional 1 hour at room temperature on the shaker. 5 μL of stop solution is added to stop the reaction. The KDR kinase inhibition activity of a test compound is calculated based on the method recommended by the manufacturer. The IC50 values of the KDR kinase inhibition activity are calculated using XLfit software.
(1) Dilution of the test compounds: each of the above three compounds is dissolved in DMSO to prepare a […] stock solution and stored in −20° C. freezer. The stock solution is diluted to the four times concentration of the desired test concentration with 8% DMSO before use. […]
(7) Kinase inhibition: Add the following components in turn in a 384-well plate. […] Seal the plate with aluminum foil and allow the reaction to proceed at room temperature (25° C.) for 1 hour on the shaker (250 rpm). • e) Dilution of enhancer solution (right before use): according to the recommendation of manufacturer, dilute enhancer stock with development dilution buffer 128-fold. • f) Fluorescence enhancement: add 5 μL/well of the diluted enhancer solution in all wells, briefly spin at 1000 rpm, re-seal the plate and let the reaction proceed at room temperature for an additional hour on the shaker. • g) Add 5 μL/well of stop solution to all wells, briefly spin at 1000 rpm. Mix at room temperature for 2 minutes on the shaker, and read florescence signals on Victor3 (Perkin Elmer) at excitation 400 nm, emission 445 nm/530 nm. […]

[2] = biological target: T2, FGFR1 kinase (Homo sapiens, UniProt P11362); assay: FGFR1 kinase activity assay, Transcreener FP; format: biochemical; conditions: 10 μM ATP, 60 minutes, room temperature
T2 construct: purchased Invitrogen PV3146
T2 sequence (P11362 22-822): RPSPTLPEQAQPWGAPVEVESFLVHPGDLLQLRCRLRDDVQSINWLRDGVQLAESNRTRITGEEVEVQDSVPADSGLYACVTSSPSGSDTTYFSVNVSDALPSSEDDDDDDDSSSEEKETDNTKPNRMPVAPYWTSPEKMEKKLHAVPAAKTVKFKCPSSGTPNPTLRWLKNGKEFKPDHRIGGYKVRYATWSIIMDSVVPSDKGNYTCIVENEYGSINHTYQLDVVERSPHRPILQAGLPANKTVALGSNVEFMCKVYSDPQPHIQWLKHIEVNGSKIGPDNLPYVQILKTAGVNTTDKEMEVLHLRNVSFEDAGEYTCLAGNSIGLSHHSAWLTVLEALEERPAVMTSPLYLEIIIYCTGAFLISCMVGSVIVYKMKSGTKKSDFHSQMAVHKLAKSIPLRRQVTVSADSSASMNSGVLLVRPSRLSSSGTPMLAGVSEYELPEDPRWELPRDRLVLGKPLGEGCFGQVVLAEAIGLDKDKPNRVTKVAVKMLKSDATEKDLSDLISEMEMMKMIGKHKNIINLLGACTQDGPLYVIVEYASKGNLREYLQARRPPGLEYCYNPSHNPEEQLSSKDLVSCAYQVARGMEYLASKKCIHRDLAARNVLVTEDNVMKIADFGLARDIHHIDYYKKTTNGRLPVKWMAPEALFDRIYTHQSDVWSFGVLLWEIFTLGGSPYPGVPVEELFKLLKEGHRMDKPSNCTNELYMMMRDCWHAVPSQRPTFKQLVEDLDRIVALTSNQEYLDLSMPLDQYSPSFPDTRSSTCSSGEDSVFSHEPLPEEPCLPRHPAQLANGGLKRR
Description: The Transcreener FP technology of Bellbrook Labs is used in the FGFR1 kinase activity assay. The kinase reaction was done in 96-well half area black plate (Greiner, Cat. 675076). In each well, were added 5 μL of test compounds in 5% DMSO, 10 μL of 0.3 ng/μL FGFR1 kinase (Invitrogen, PV3146) diluted in assay buffer. The reaction was started by the addition of 10 of 62.5 ng/μL poly (Glu:Tyr, 4:1) substrate (Sigma, P0275) and 25 μmol/L of ATP mixture, and incubated for 60 minutes at room temperature. The final conditions for kinase assay were: 10 μM of ATP, 0.12 ng/μL of FGFR1 kinase, 25 ng/μL of substrate, 53.6 mmol/L of HEPES (pH 7.5), 21.6 mmol/L of MgCl2, 0.536 mmol/L of MnCl2, 1 mmol/L of DTT and 0.01% Triton X-100, 1% DMSO.
At the same time, an ADP standard curve was performed. The standard curve mimics a kinase reaction in the absence of test compound, kinase, and lipid substrate. The standard curve contained 12 concentration points, and total [ATP+ADP] ranged from 10 μM to 0.01 μM. […]
After reacting for 60 minutes at room temperature, 25 μL of transcreener Kinase Kit reagent—ADP Detection Mix—(Bellbrook Labs) was added and reacted for an additional 1.0 hours. The plates were then read in Tecan Infinite F500 at an excitation of 610 nm and an emission of 670 nm. […] The inhibition of test compound on ADP production was calculated based on ADP concentration calculated from standard curve. […]

[3] = biological target: T3, hERG channels (Homo sapiens, UniProt Q12809); assay: hERG whole-cell patch clamp in CHO cells stably transfected with hERG cDNA; format: cell-based; conditions: CHO cells expressing hERG, tail current; read-out: hERG current inhibition IC50
T3 construct: expressed in transfected cells; host or cells: CHO
T3 sequence (Q12809 whole entry): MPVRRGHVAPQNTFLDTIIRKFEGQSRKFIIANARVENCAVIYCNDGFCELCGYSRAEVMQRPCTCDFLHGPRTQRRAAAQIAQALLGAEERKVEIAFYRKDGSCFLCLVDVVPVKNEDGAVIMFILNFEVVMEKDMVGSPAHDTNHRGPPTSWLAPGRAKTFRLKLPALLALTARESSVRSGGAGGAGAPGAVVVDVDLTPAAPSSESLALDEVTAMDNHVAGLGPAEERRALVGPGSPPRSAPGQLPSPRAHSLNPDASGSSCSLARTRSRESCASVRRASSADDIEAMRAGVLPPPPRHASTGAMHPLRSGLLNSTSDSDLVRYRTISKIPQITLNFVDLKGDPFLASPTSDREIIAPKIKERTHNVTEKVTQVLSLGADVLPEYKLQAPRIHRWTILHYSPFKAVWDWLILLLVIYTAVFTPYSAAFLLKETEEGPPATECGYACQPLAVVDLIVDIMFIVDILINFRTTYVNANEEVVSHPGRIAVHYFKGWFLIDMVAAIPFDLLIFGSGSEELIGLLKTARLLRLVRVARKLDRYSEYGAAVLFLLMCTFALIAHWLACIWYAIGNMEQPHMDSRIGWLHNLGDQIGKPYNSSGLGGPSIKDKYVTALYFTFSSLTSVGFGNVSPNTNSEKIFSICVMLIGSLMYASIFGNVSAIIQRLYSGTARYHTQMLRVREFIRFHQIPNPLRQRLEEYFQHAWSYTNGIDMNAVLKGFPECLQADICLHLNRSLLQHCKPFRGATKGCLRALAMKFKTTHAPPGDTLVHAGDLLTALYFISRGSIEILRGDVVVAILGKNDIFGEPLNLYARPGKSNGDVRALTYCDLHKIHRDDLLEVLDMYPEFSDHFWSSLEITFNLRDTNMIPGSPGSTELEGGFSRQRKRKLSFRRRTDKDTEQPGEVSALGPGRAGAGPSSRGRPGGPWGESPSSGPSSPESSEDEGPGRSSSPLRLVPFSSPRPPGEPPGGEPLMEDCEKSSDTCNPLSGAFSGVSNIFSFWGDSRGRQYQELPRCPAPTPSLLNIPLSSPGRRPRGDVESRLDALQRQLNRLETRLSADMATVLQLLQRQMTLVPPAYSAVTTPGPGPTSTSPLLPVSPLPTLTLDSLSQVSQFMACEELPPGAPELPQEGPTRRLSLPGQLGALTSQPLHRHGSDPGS
Description: A CHO cell line stably transfected with hERG cDNA and expressing hERG channels was used for the study. Cells were cultured in a medium comprising:
Before testing, cells were harvested using an Accumax (Innovative Cell Technologies).
Whole-cell recording was performed using a 700B (Axon Instruments). The cells were voltage clamped at a holding potential of −80 mV. The hERG current was activated by depolarizing at +20 mV for 2 sec, after which the current was taken back to −50 mV for 2 sec to remove the inactivation and observe the deactivating tail current. The first step at −50 mV was used as a baseline for measuring the tail current peak amplitude.
Test compound was prepared as a 10 mM DMSO stock solution in a glass vial. The stock solution was mixed vigorously for 10 minute at room temperature. The stock solution was diluted in a glass vial using External Solution; the dilution was prepared no longer than 30 minutes before use. Equal amounts of DMSO (0.1%) were present at final dilution.
After achieving whole-cell configuration, the cells were monitored for 90 sec to assess stability and washed with external solution for 66 sec. The voltage protocol described above was then applied to the cells every 20 sec throughout the whole procedure. […]
Data were analyzed using Clampfit (both by Axon Instruments) and Origin 7 (Originlab Corporation).

[4] = Pharmacokinetics study in mice; format: in vivo; conditions: male, ICR; mouse plasma, single oral dose 10 mg/kg
Description: Experimental Method: The pharmacokinetics of the test compounds were studied with male ICR mice (n=6 for each group, weight 20˜30 g) after a single intraveneous (i.v.) and oral (p.o.) dosing at 2.5 and 10 mg/kg, respectively. For i.v. dosing formulation, the test compound was dissolved in DMSO (0.25%)-solutol (10%)-ethanol (10%)-physiological saline (79.75%) at the concentration of 0.25 mg/mL. And the p.o. dosing formulation (1 mg/mL) was prepared with 0.5% CMC-Na. After i.v. or p.o. dosing, blood samples were collected via the ophthalmic vein at 0 (pre-dose), 5, 15, 30 min and 1, 1.5, 2, 4, 8, 24 h, anti-coagulated with heparin-Na. After centrifugation, plasma samples were separated and protein precipitated with acetonitrile (containing internal standard). The concentration of the testing compounds in these plasma samples were then determined by LC/MS/MS.

[5] = Hygroscopicity, saturated salt solution method; format: physicochemical; conditions: 10 days, 25° C.; for Stability under the testing humidity conditions: crystalline form unchanged; for Hygroscopicity (in words): saturated NaCl solution
Description: The desiccator was closed and left standing for 10 days at 25° C. Then the samples were taken out and weighed again, and the weight gain was calculated.

[6] = Thermodynamic stability comparison, slurry of Form I and Form II mixture; format: physicochemical; conditions: 1 g each of Form I and Form II in 10 mL methanol, 60° C., 20 h, powder X-ray diffraction
Text: Then the suspension was filtered with a Buchner funnel and paper disk, and dried under a vacuum oven.

T1 sequence (P35968 834-1162 limits assumed): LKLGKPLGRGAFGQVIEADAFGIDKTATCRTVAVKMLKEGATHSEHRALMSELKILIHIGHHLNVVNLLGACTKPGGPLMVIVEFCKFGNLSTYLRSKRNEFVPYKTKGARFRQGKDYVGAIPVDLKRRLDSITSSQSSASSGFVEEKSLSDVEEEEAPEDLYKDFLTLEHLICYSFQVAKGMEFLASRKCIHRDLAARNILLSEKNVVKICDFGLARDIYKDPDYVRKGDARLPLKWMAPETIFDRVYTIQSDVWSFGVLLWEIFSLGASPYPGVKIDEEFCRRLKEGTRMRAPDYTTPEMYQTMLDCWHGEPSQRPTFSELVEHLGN

Row | SMILES | IC50 [1] | IC50 [2] | IC50 [3] | AUC [4] | Cmax [4] | Stability under the testing humidity conditions [5] | Hygroscopicity (in words) ([5]; listed as Form I sample) | Thermodynamic stability, form after slurry [6] | Hygroscopicity (in words) [5]
1 | Cc1cc2cc(Oc3ccnc(Nc4cccc(CS(=O)(=O)NCCN(C)C)c4)n3)ccc2[nH]1 [Compound A, N-(2-(dimethylamino)ethyl)-1-(3-((4-((2-methyl-1H-indol-5-yl)oxy)pyrimidin-2-yl)amino)phenyl)-methanesulfonamide] | 21 nM | 53 nM | 6800 nM | 397 ng·h/mL | 138 ng/mL |  |  |  | 
2 | CNS(=O)(=O)Cc1cccc(Nc2nccc(Oc3ccc4[nH]c(C)cc4c3)n2)c1 [Compound B, N-methyl-1-(3-((4-((2-methyl-1H-indol-5-yl)oxy)pyrimidin-2-yl)amino)phenyl)methanesulfonamide, reference compound] | 38 nM |  |  | 26 ng·h/mL | 20 ng/mL |  |  |  | 
3 | Cc1cc2cc(Oc3ccnc(Nc4cccc(CS(=O)(=O)NCCN(C)C)c4)n3)ccc2[nH]1 [Form I, Form I N-(2-(dimethylamino)ethyl)-1-(3-((4-((2-methyl-1H-indol-5-yl)oxy)pyrimidin-2-yl)amino)phenyl)-methanesulfonamide] |  |  |  |  |  | stable | non-hygroscopic | physically and/or thermodynamically more stable than Form II | 
4 | Cc1cc2cc(Oc3ccnc(Nc4cccc(CS(=O)(=O)NCCN(C)C)c4)n3)ccc2[nH]1 [Form II, Form II N-(2-(dimethylamino)ethyl)-1-(3-((4-((2-methyl-1H-indol-5-yl)oxy)pyrimidin-2-yl)amino)phenyl)methanesulfonamide] |  |  |  |  |  | stable |  | transformed to the Form I | slightly hygroscopic
5 | Cc1cc2c(F)c(Nc3ccnc(Nc4cccc(OCCN5CCOCC5)c4)n3)ccc2[nH]1 [compound of Formula C, N^4-(4-fluoro-2-methyl-1H-indol-5-yl)-N^2-(3-(2-morpholinoethoxy)phenyl)pyrimidine-2,4-diamine, reference compound] | 111 nM |  | 547 nM |  |  |  |  |  | 
